What was measured:
Type in all cases: cell-based
HSL = experiment: RT-PCR of lipolysis-related gene HSL in adipocytes; settings: 3T3-L1 adipocytes, 5 μM and 50 μM peptide, 72 hours, GAPDH internal control
Procedure: (§1) First, in order to differentiate pre-adipocytes into adipocytes, pre-adipocytes and 3T3-L1 cells purchased from the American Type Culture Collection (ATCC) were cultured in DMEM including 2% fetal bovine serum (FBS). In order to differentiate 3T3-L1 cells into adipocytes, the culture was dispensed into a 12-well plate at a density of 1×10^5 cells/well, and 2 days after the time-point of achieving the confluent growth (day 0), the culture medium was replaced with DMEM medium including 10% FBS, 10 μg/mL insulin, 0.5 mM isobutylmethylxanthine (IBMX)(Sigma, USA), and 1 μM dexamethasone (Sigma. USA), and cultured. After 2 days (day 2), the culture medium was replaced with DMEM medium including 10% FBS and 10 μg/mL insulin and cultured, and 3 days thereafter (day 5), the culture medium was replaced with a medium including only 10% FBS Two days thereafter (day 7), the cells were named 3T3-L1 adipocytes and cultured under the conditions of 37° C., 5% CO2 environment. The adipocytes which were induced to differentiate for 10 days were used in subsequent experiments.
(§2) In adipocytes, in order to confirm whether the peptide of the present invention has the effect of activating the lipolysis-promoting cell signaling pathway. mRNA expression levels of HSL, ATGL, and perilipin1 genes associated with lipolysis promotion were examined. […]

ATGL = experiment: RT-PCR of lipolysis-related gene ATGL in adipocytes; settings: 3T3-L1 adipocytes, 5 μM and 50 μM peptide, 72 hours, GAPDH internal control
Procedure: as §1, §2

perilipin1 = experiment: RT-PCR of lipolysis-related gene perilipin1 in adipocytes; settings: 3T3-L1 adipocytes, 5 μM and 50 μM peptide, 72 hours, GAPDH internal control
Procedure: as §1, §2

pHSL = experiment: Western blot of pHSL in adipocytes; settings: 3T3-L1 adipocytes, 5 μM and 50 μM peptide, 1 hour, Western blot with anti-pHSL antibody
Procedure: as §1, with “The adipocytes which were induced to differentiate for 10 days were used in subsequent experiments.” left out
Specifically, the adipocytes differentiated in Preparation Example 1 were treated with 5 μM and 50 μM of the peptide of SEQ ID NO: 1, and after 1 hour, the cells were recovered and treated with a cell lysis buffer to obtain a lysate. Then, the protein was quantified and subjected to Western blotting using an anti-pHSL antibody (Cell Signaling Technology (CST), USA).

3T3-L1 adipocytes = experiment: Glycerol colorimetric assay, free glycerol released from adipocytes; settings: 5 μM and 50 μM peptide, 48 hours, supernatant
Procedure: as §1, with “The adipocytes which were induced to differentiate for 10 days were used in subsequent experiments.” left out
Specifically, adipocytes differentiated in Preparation Example 1 were treated with the peptide of SEQ ID NO: 1 at concentrations of 5 μM and 50 μM, and treated with 20 nM of TNFα, as a positive control, followed by culturing for 48 hours. After obtaining the supernatant, the amount of glycerol was measured using a glycerol colorimetric assay kit (Cayman Chemical, USA).

PGC1α = experiment: RT-PCR of thermogenesis-related gene PGC1α in adipocytes; settings: 3T3-L1 adipocytes, 5 μM and 50 μM peptide, 72 hours, GAPDH internal control
Procedure: as §1
(§3) In order to confirm whether the peptide of the present invention has the effect of preventing or treating obesity, the levels of mRNA expression of PGC1α1, Tbx1, FGF21, and UCP1, which are thermogenesis-related genes in brown adipocytes, were examined. […]

Tbx1 = experiment: RT-PCR of thermogenesis-related gene Tbx1 in adipocytes; settings: 3T3-L1 adipocytes, 5 μM and 50 μM peptide, 72 hours, GAPDH internal control
Procedure: as §1, §3

FGF21 = experiment: RT-PCR of thermogenesis-related gene FGF21 in adipocytes; settings: 3T3-L1 adipocytes, 5 μM and 50 μM peptide, 72 hours, GAPDH internal control
Procedure: as §1, §3

UCP1 [1] = experiment: RT-PCR of thermogenesis-related gene UCP1 in adipocytes; settings: 3T3-L1 adipocytes, 5 μM and 50 μM peptide, 72 hours, GAPDH internal control
Procedure: as §1, §3

PRDM16 = experiment: Western blot of thermogenesis-related protein PRDM16 in adipocytes; settings: 3T3-L1 adipocytes, 5 μM and 50 μM peptide, 24 hours
Procedure: as §1, with “The adipocytes which were induced to differentiate for 10 days were used in subsequent experiments.” left out
(§4) Specifically, the adipocytes obtained in Preparation Example 1 were treated with 5 μM and 50 μM of the peptide of SEQ ID NO: 1, respectively. […] Then, the protein was quantified and subjected to Western blotting was performed using an anti-PRDM16 antibody (Cell signaling technology (CST), USA) and an anti-UCP1 antibody (Abcam, England).

UCP1 [2] = experiment: Western blot of thermogenesis-related protein UCP1 in adipocytes; settings: 3T3-L1 adipocytes, 5 μM and 50 μM peptide, 24 hours
Procedure: as §1, with “The adipocytes which were induced to differentiate for 10 days were used in subsequent experiments.” left out
as §4

DYNMKWIHVY [SEQ ID NO: 1] was tested, and the “mRNA expression of HSL gene” value (HSL) was “increased”, the “mRNA expression of ATGL gene” value (ATGL) was “increased” and the “mRNA expression of perilipin1 gene” value (perilipin1) was “increased”. For the same sequence, the “phosphorylation of HSL protein” value (pHSL) was “increased”, the “amount of glycerol released” value (3T3-L1 adipocytes) was “increased in a concentration-dependent manner” and the “mRNA expression of PGC1α gene” value (PGC1α) was “increased”. For the same sequence, the “mRNA expression of Tbx1 gene” value (Tbx1) was “increased”, the “mRNA expression of FGF21 gene” value (FGF21) was “increased” and the “mRNA expression of UCP1 gene” value (UCP1 [1]) was “increased”. For the same sequence, the “expression of PRDM16 protein” value (PRDM16) was “increased” and the “expression of UCP1 protein” value (UCP1 [2]) was “increased”.

Source: US20240400615A1, “PEPTIDE HAVING ANTI-OBESITY ACTIVITY AND USES THEREOF” (CAREGEN CO., LTD., priority 2021, published 2024)
